Measurements taken from US20240067932A1, “METHODS AND COMPOSITIONS FOR GENERATING HEMOGENIC ENDOTHELIAL CELLS FROM PLURIPOTENT STEM CELLS” (Trailhead Biosystems Inc., priority 2022, published 2024).

Columns and labels:
Assay type in all cases: cell-based, human
[1] = test system: early mesoderm progenitors; assay: Factor criticality / dynamic profile analysis of gene expression on removal of a finalized effector; set-up: expression level of GATA2 / expression level of TAL1 / expression level of CD44 / expression level of KDR / expression level of CD34 / expression level of CD31: unit not given here
[2] = test system: early mesoderm progenitors; assay: 8-factor HD-DoE experiments optimized for maximum GATA2 expression (qPCR, partial least squares models)
[3] = test system: early mesoderm progenitors; assay: as above; conditions: for factor contribution (maximum expression of GATA2): first model, FIG. 2, factors Forskolin, VEGF, FGF2, Albumax, SUN1162, Hydrocortisone, SB341542, Resveratrol, 3 days after stage 1
Text: The early mesoderm progenitors were used for further differentiation along the endothelial lineage using a High-Dimensional Design of Experiments (HD-DoE) approach to simultaneously test multiple process inputs (e.g., small molecule agonists or antagonists) on output responses, such as gene expression. Based on predicted conditions that maximize expression of hemogenic endothelial enriched genes such as CD31, CD34, CD143, CD309, GATA2, Fill and RUNX1, vWF, a complex recipe was developed for generating differentiated hemogenic endothelial cells from the early mesoderm progenitors, composed of 8 agents as shown below in Table 1:
First, undifferentiated iPSC were grown for 48 h in CDM2 media containing 6 uM CHIR99021 (referred to herein as stage 1). Then stage 2 media was engineered. The basis of this was an 8-factor HD-DoE experiment with focus on differentiation of cells toward the hemogenic endothelial lineage for an additional 3 days after termination of stage 1 treatment. To test the effectors, 48 different combinations of effectors generated using Design-of-Experiments compression through D-optimality were robotically prepared. The effector combinations were prepared in a basal media and were subsequently added to the cells, which were then allowed to differentiate. Three days later, RNA extraction was performed, and gene expression was obtained using quantitative PCR analysis. The data were normalized and modeled using partial least squares regression analysis to the effector design, resulting in the generation of gene-specific models, which after model tuning for maximal Q2 predictive power, provided explanation of the effectors ability to control the expression of individual genes, combinatorically, and individually. Solutions within the tested space could then be explored to address desirability. For stage 2, conditions were created inducing the expression of GATA2, a transcription factor identified as a master regulator of hematopoiesis. GATA2 promotes the generation of HECs and facilitates endothelial-to-hematopoietic transition (EHT). GATA2 also suppresses cardiac differentiation at the mesoderm stage, directing cells to a hematopoietic fate. Optimizing for maximal expression of GATA2 led to a robust solution. […] In this model, high levels of KDR, important receptor for VEGF signaling, were observed. […] This model was derived from initial testing of eight factors including: Forskolin, VEGF, FGF2, Albumax, SUN1162, Hydrocortisone, SB341542, and Resveratrol. […] Factors with low contribution were excluded.

[4] = model FIG. 9A, before addition of SANT1
[5] = model FIG. 9A, with addition of SANT1
[6] = second model, FIG. 3, factors CHIR, VEGF, FGF2, TTNBP, AGN194310, Y27632, Thymosin-β4, heparin
[7] = model FIG. 8, named factor removed, others kept
[8] = fourth model, FIG. 5, factors VEGF, FGF2, Sphingosine 1 phosphate, V11298, Pyrintegrin, Erythropoietin, L-ascorbic acid, XAV939
[9] = model FIG. 10 (XAV939, VEGF, FGF2, L-ascorbic acid kept), factor present
[10] = model FIG. 10, named factor removed
[11] = model FIG. 7 (VEGF, Forskolin, FGF2), factor present
[12] = model FIG. 7, named factor removed, others kept
[13] = model FIG. 9, named factor removed
[14] = model FIG. 11, named factor removed

Cc1nn(-c2ccccc2)c(C)c1/C=N/N1CCN(Cc2ccccc2)CC1 [SANT1, reference compound]
effect on expression of genes of interest (in words) ([1]; model FIG. 9): decreased levels of all genes of interest
expression level of CD34 [1, 4]: 3159
expression level of KDR [1, 4]: 13469
expression level of TAL1 [1, 4]: 1010
expression level of CD34 [1, 5]: 1995
expression level of KDR [1, 5]: 12504
expression level of TAL1 [1, 5]: 498

Thymosin-β4: Actin binding protein (SDKPDMAEIEKFDKSKLKKTETQEKNPLPSKETIEQEKQAGES; UniProt P62328 2-44, looked up)
factor contribution (maximum expression of GATA2) [2, 6]: 16
expression level of GATA2 ([1]; model FIG. 8 (VEGF, FGF2, Thymosin-β4), factor present): 633
expression level of CD44 ([1]; model FIG. 8, factor present): 748
expression level of KDR ([1]; model FIG. 8, factor present): 40660
expression level of CD44 [1, 7]: 626
expression level of GATA2 [1, 7]: 437
expression level of KDR [1, 7]: 37788

C/C(=C\c1ccc(C(=O)O)cc1)c1ccc2c(c1)C(C)(C)CCC2(C)C [TTNBP]
factor contribution (maximum expression of GATA2) [2, 6]: relatively low factor contribution

Oc1nc(-c2ccc(C(F)(F)F)cc2)nc2c1CSCC2 [XAV939, reference compound]
factor contribution (maximum expression of GATA2) [2, 8]: 16
expression level of GATA2 [1, 9]: 992
expression level of CD31 ([1]; model FIG. 10, factor present): 6619
expression level of CD34 ([1]; model FIG. 10, factor present): 7050
expression level of CD44 ([1]; model FIG. 10, factor present): 838
expression level of FLI1 (Fill [sic]) ([1]; model FIG. 10, factor present): 13094
expression level of KDR ([1]; model FIG. 10, factor present): 36067
expression level of TAL1 ([1]; model FIG. 10, factor present): 1265
expression level of CD31 [1, 10]: 2181
expression level of CD34 [1, 10]: 5740
expression level of CD44 [1, 10]: 799
expression level of FLI1 (Fill [sic]) [1, 10]: 7237
expression level of GATA2 [1, 10]: 560
expression level of KDR [1, 10]: 31179
expression level of TAL1 [1, 10]: 982

FGF2: FGFR agonist (e.g., recombinant human FGF2)
factor contribution (maximum expression of GATA2) [2, 8]: 22
factor contribution (maximum expression of GATA2) [2, 6]: low factor contribution
expression level of GATA2 [1, 11]: 583
expression level of CD31 ([1]; model FIG. 7, factor present): 879
expression level of CD44 ([1]; model FIG. 7, factor present): 576
expression level of FLI1 (Fill [sic]) ([1]; model FIG. 7, factor present): 3970
expression level of KDR ([1]; model FIG. 7, factor present): 33760
expression level of CD31 [1, 12]: 505
expression level of CD44 [1, 12]: 274
expression level of FLI1 (Fill [sic]) [1, 12]: 3374
expression level of GATA2 [1, 12]: 458
expression level of KDR [1, 12]: 23868
expression level of CD31 ([1]; model FIG. 8, factor present): 807
expression level of CD44 ([1]; model FIG. 8, factor present): 748
expression level of KDR ([1]; model FIG. 8, factor present): 40630
expression level of CD31 [1, 7]: 677
expression level of CD44 [1, 7]: 626
expression level of KDR [1, 7]: 29902
expression level of GATA2 [1, 9]: 992
expression level of CD31 ([1]; model FIG. 10, factor present): 6619
expression level of CD34 ([1]; model FIG. 10, factor present): 7050
expression level of CD44 ([1]; model FIG. 10, factor present): 838
expression level of FLI1 (Fill [sic]) ([1]; model FIG. 10, factor present): 13094
expression level of KDR ([1]; model FIG. 10, factor present): 36067
expression level of TAL1 ([1]; model FIG. 10, factor present): 1265
expression level of CD31 [1, 10]: 2002
expression level of CD34 [1, 10]: 6550
expression level of CD44 [1, 10]: 466
expression level of FLI1 (Fill [sic]) [1, 10]: 5406
expression level of GATA2 [1, 10]: 397
expression level of KDR [1, 10]: 22308
expression level of TAL1 [1, 10]: 866
factor contribution in 2 of 3 models ([3]; across models): > 16
factor contribution (maximum expression of GATA2) [3]: 17

heparin
factor contribution (maximum expression of GATA2) [2, 6]: relatively low factor contribution

C=C[C@@]1(C)CC(=O)[C@]2(O)[C@@]3(C)[C@@H](O)CCC(C)(C)[C@@H]3[C@H](O)[C@H](OC(C)=O)[C@@]2(C)O1 [Forskolin, reference compound]
expression level of GATA2 [1, 11]: 583
expression level of CD34 ([1]; model FIG. 7, factor present): 2350
expression level of CD44 ([1]; model FIG. 7, factor present): 578
expression level of FLI1 (Fill [sic]) ([1]; model FIG. 7, factor present): 3971
expression level of KDR ([1]; model FIG. 7, factor present): 33751
expression level of TAL1 ([1]; model FIG. 7, factor present): 370
expression level of CD34 [1, 12]: 2240
expression level of CD44 [1, 12]: 540
expression level of FLI1 (Fill [sic]) [1, 12]: 3740
expression level of GATA2 [1, 12]: 373
expression level of KDR [1, 12]: 32839
expression level of TAL1 [1, 12]: 318
factor contribution (maximum expression of GATA2) [3]: 27

C[C@@H](N)[C@H]1CC[C@H](C(=O)Nc2ccncc2)CC1 [Y27632]
factor contribution (maximum expression of GATA2) [2, 6]: relatively low factor contribution

c1ccc2c(Oc3nc(Nc4ccc(N5CCOCC5)cc4)c4ncn(C5CCCCC5)c4n3)cccc2c1 [Purmorphamine, reference compound]
factor contribution (maximum expression of GATA2) ([2]; third model, FIG. 4, factors YHHU, DBZ, Purmorphamine, SANT1, LPA, Yodal, VEGF, B-27): 20
expression level of GATA2 ([1]; model FIG. 9 (Purmorphamine, VEGF, B-27 kept), factor present): 275
expression level of CD34 ([1]; model FIG. 9, factor present): 3230
expression level of FLI1 (Fill [sic]) ([1]; model FIG. 9, factor present): 3571
expression level of KDR ([1]; model FIG. 9, factor present): 13612
expression level of TAL1 ([1]; model FIG. 9, factor present): 1008
expression level of CD34 [1, 13]: 2369
expression level of FLI1 (Fill [sic]) [1, 13]: 2324
expression level of GATA2 [1, 13]: 105
expression level of KDR [1, 13]: 7614
expression level of TAL1 [1, 13]: 428

O=C1O[C@H]([C@@H](O)CO)C(O)=C1O [L-ascorbic acid, reference compound]
factor contribution (maximum expression of GATA2) [2, 8]: 5
effect on expression of hemogenic endothelial genes analyzed (in words) ([1]; model FIG. 10): increased expression of crucial genes

CC1=C(/C=C/C(C)=C/C=C/C(C)=C/C(=O)O)C(C)(C)CCC1 [Retinoic Acid, Retinoic acid, reference compound]
factor contribution (maximum expression of GATA2) ([2]; fifth model, FIG. 6, factors VPA, SCF, BMP4, EFG, FLT3L, Arginine, Retinoic Acid, VEGF): 22
expression level of GATA2 ([1]; model FIG. 11 (Retinoic Acid, BMP4, VEGF), factor present): 519
expression level of CD31 ([1]; model FIG. 11, factor present): 768
expression level of CD34 ([1]; model FIG. 11, factor present): 3971
expression level of FLI1 (Fill [sic]) ([1]; model FIG. 11, factor present): 3250
expression level of TAL1 ([1]; model FIG. 11, factor present): 490
expression level of CD31 [1, 14]: 486
expression level of CD34 [1, 14]: 2902
expression level of FLI1 (Fill [sic]) [1, 14]: 2936
expression level of GATA2 [1, 14]: 281
expression level of TAL1 [1, 14]: 235

CCc1ccc(C2=CC(C)(C)Sc3ccc(C#Cc4ccc(C(=O)O)cc4)cc32)cc1 [AGN194310]
factor contribution (maximum expression of GATA2) [2, 6]: relatively low factor contribution

Cc1c[nH]c(-c2cnc(NCCNc3ccc(C#N)cn3)nc2-c2ccc(Cl)cc2Cl)n1 [CHIR]
factor contribution (maximum expression of GATA2) [2, 6]: relatively low factor contribution
